{"source": "paper PMC4245125", "about": "“Pharmacological and Behavioral Characterization of D-473, an Orally Active Triple Reuptake Inhibitor Targeting Dopamine, Serotonin and Norepinephrine Transporters” (PLoS ONE, 2014)", "key": {"[1]": {"test": "Plasma concentration after oral administration in rats", "format": "in vivo", "conditions": "rat, male Sprague-Dawley rats, 25 mg/kg PO", "description": "Sample preparation: Following oral administration of 25 mg/kg of D-473 and D-142 in male Sprague Dawley rats, the blood samples were collected at different time points over a period of 8 h for analysis. Concentrations of D-473 and D-142 in plasma were quantitated using a set of calibration standards prepared in blank matrix that were processed in parallel. Plasma concentration evaluation was carried out by the CRO, Absorption System, PA. Additionally, brain uptake studies of D-473 were carried out at three different time points (2, 4 and 6 h) following oral administration of 25 mg/kg D-473. Concentrations of D-473 in rat brain were quantitated using a set of calibration standards which were prepared in blank brain homogenate matrix on the day of analysis. The standard samples (5, 10, 25, 100, 500, 1000, and 2000 ng/mL) for calibration curve were prepared by spiking 45 µL of blank rat plasma with 5 µL of appropriate working dilution of D-473 in acetonitrile. The bioanalytical sample preparation for brain and plasma analysis followed by quantification of test compounds entailed the addition of 250 µL acetonitrile to every 50 µL of standard and analyte samples to precipitate tissue plasma proteins and tissue macromolecules. These mixtures were then vortexed for 15 min at 1400 rpm. The suspensions were then clarified by centrifugation (18000 g, 10 min at 4°C), and each 150 µL of the resulting supernatant was mixed well with 50 µL 0.1% formic acid in 50/50 (v/v) ACN/water solution for about 10 sec. The mixtures were again centrifuged (18000 g, 10 min at 4°C) before 100 µL of clear supernatant were transferred to auto sampler vials for LC-MS/MS analysis.\nThe analysis of blood sample was carried out by the CRO Absorption system, PA. Briefly, the analysis was carried out by Waters Acquity UPLC equipped with PE Sciex API4000 mass spectrometer. Reverse phase Waters Acquity BEH Phenyl Column 1.7micron, 2.1×30 mm column was used for analysis. 5 µL of sample solutions were injected with a flow rate 1 mL/min and the samples were eluted with gradient elution using solvent A (10% buffer: 90% water) and solvent B (10% buffer: 90% acetonitrile). Buffer used was 40 mM Ammonium Formate Buffer, pH 3.5. Pharmacokinetic prarameters were estimated by a non-compartmental model using WinNonlin v5.2.1 software."}, "[2]": {"test_system": "extracellular DA, 5-HT, NE and metabolites in the dorsal lateral striatum (DLS)", "test": "Microdialysis in dorsal lateral striatum, monoamines and metabolites", "format": "in vivo, rat", "conditions": "10 mg/kg i.p.", "description": "Adult male Sprague-Dawley rats (Harlan, Indianapolis, IN) weighing between 250 and 350 g were used for all experiments. Rats were housed in a temperature and humidity controlled room with 12 hr light/dark cycles with food and water available ad libitum. Adequate measures were taken to prevent animal pain and discomfort. All animals were treated as approved by the University of Michigan Unit for Laboratory Animal Medicine (ULAM) and in accordance with the National Institute of Health (NIH) Guidelines for the Care and Use of Laboratory Animals.\nRats were anesthetized with using an isoflurane vaporizer that was interfaced to a model 963 Ultra Precise stereotaxic instrument with 0.1 mm resolution (David Kopf Instruments, Tujunga, CA). Concentrically designed microdialysis probes (1 mm dialyzing length) were built in house then implanted bilaterally into the dorsal lateral striatum (DLS) and the medial prefrontal cortex (mPFC) according to the following coordinates from bregma and dura (in mm): AP +1, ML +3.3, DV –5.7 and AP +3, ML −0.5, DV −5, respectively (Paxinos and Watson, 2007). […] 1 mm probes were selected for higher spatial resolution and lower tissue damage compared to larger probes. Probes were secured to the skull by acrylic dental cement and metallic screws. Following surgery, rats were allowed to recover and experiments were run 24 hr after probe implantation. Microdialysis probes were flushed at a flow rate of 2 µl/min with aCSF (composition in mM: CaCl2 1.2; KCl 2.7, NaCl 148 and MgCl2 0.85) for 2 hr using a Chemyx Fusion 400 syringe pump (Chemyx, Stafford, TX). Perfusion flow rate was then reduced to 1 µl/min and samples were collected every 10 min. Baseline values were collected for 50 min and then the drug D-473 was injected (10 mg/kg, i.p.) and samples were collected for an additional 2 h. When experiments were completed, animals were euthanized and then brains were extracted and frozen at −80°C until histology.\nDopamine, norepinephrine (NE), serotonin (5HT), DOPAC, homovanillic acid (HVA) and 5-hydroxyindole acetic acid (5-HIAA) were analyzed using a benozyolation derivitization LC-MS method recently described by our laboratory. Briefly, 10 µl dialysate samples were derivatized by adding 5 µl of 100 mM sodium tetraborate, 5 µl of 2% benzoyl chloride in acetonitrile, and then 5 µl of a stable ^13C benzoylated isotope internal standard mixture was then added to improve quantitation. A Thermo Fisher Accela UHPLC (Waltham, MA) system automatically injected 5 µl of the sample onto a Waters (Milford, MA) HSS T3 reverse phase HPLC column (1 mm X 100 mm, 1.8 µm). Mobile phase A consisted of 10 mM ammonium formate and 0.15% formic acid. Mobile phase B was pure acetonitrile. Analytes were detected by an Thermo Fisher TSQ Quantum Ultra triple quadrupole mass spectrometer operating in multiple reaction monitoring (MRM) mode. The assay limits of detection were (nM in dialysate) for DA, 0.3; NE, 0.2; 5HT, 0.1; HVA, 0.5; DOPAC, 2; and 5HIAA, 5. […] Average standard deviation in above basal levels was 18%.\nAll neurochemical data were transformed into percent baseline with baseline values all averaging 100%. Statistical analysis was performed by t-test analysis of every point relative to baseline values (i.e. 100%) using Prism 6 (Graphpad Software Inc, La Jolla, CA). P values <0.05 were considered to be statistically significant."}, "[3]": {"target": "T1, Alpha1A (Homo sapiens, UniProt P35348)", "T1 construct": "purchased NIMH PDSP", "T1 sequence (P35348 whole entry)": "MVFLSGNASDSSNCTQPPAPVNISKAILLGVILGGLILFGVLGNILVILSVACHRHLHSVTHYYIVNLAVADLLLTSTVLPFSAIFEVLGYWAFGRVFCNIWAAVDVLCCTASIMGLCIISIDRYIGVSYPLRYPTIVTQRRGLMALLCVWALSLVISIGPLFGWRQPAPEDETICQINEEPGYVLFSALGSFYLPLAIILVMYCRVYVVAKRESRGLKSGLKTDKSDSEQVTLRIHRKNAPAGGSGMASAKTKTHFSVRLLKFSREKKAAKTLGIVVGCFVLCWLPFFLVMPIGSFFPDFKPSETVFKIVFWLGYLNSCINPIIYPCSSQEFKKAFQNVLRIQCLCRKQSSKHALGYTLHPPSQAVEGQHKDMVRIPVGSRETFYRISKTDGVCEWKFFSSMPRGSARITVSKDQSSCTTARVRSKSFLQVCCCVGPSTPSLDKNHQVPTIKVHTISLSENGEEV", "test": "NIMH PDSP receptor binding, Alpha1A", "conditions": "[3H]Prazosin, read-out: % Inhibition of Binding at 10 µM D-473"}, "[4]": {"target": "T2, Beta3 (Homo sapiens, UniProt P13945)", "T2 construct": "NIMH PDSP", "T2 sequence (P13945 whole entry)": "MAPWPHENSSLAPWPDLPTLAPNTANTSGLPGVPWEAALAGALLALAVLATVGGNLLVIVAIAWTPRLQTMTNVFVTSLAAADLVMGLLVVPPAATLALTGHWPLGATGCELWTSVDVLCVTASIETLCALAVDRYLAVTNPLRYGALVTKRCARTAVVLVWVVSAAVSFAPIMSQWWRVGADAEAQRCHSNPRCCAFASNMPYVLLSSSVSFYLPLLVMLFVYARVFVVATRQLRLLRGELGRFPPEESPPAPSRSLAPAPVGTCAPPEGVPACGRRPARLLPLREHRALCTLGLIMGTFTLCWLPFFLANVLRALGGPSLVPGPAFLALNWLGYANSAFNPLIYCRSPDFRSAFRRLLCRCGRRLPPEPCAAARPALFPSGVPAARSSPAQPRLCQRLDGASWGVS", "test": "NIMH PDSP receptor binding, Beta3", "conditions": "[125I]Iodopindolol"}, "[5]": {"target": "T3, H3 (Homo sapiens, UniProt Q9Y5N1)", "T3 construct": "purchased NIMH PDSP", "T3 sequence (Q9Y5N1 whole entry)": "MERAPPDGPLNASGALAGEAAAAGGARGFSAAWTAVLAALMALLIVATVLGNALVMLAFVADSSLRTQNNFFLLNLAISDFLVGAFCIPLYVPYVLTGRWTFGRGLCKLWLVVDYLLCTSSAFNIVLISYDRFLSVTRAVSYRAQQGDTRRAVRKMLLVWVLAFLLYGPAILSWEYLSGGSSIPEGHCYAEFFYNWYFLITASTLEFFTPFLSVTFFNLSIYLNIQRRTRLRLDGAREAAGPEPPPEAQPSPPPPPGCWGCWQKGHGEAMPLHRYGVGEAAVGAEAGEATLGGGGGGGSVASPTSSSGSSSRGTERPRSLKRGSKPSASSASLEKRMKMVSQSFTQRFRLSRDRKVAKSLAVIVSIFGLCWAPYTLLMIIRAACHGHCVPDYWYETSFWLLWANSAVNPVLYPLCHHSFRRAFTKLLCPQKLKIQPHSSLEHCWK", "test": "NIMH PDSP receptor binding, H3", "conditions": "[3H]Alpha-methyl Histamine, read-out: % Inhibition of Binding at 10 µM D-473"}, "[6]": {"target": "T4, Beta1 (Homo sapiens, UniProt P08588)", "T4 construct": "purchased NIMH PDSP", "T4 sequence (P08588 whole entry)": "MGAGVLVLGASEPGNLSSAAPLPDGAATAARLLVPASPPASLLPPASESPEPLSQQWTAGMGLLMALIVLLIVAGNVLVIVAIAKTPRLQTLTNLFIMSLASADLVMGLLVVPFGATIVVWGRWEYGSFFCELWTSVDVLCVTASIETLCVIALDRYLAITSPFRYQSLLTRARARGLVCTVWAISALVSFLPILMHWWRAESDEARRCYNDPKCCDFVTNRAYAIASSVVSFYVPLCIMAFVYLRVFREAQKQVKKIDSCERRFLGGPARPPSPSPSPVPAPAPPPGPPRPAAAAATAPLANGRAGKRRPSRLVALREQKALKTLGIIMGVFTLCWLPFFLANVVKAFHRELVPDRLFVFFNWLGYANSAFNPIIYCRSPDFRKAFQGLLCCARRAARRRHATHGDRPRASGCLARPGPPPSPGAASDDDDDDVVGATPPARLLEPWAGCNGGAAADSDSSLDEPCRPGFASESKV", "test": "NIMH PDSP receptor binding, Beta1", "conditions": "[125I]Iodopindolol, read-out: % Inhibition of Binding at 10 µM D-473"}}, "data": [{"compound": "COc1ccc(CN[C@@H]2CO[C@H](C(c3ccc(F)cc3)c3ccc(F)cc3)C[C@H]2O)cc1", "note": "[Compound D-473, (2S,4R,5R)-2-(bis(4-fluorophenyl)methyl)-5-((4-methoxybenzyl)amino)tetrahydro-2H-pyran-4-ol]", "values": [{"measurement": "Cmax", "setting": "[1]; 3% HPßCD in water, read-out: Average maximum plasma concentration, Cmax", "result": "404 ± 223", "unit": "ng/mL"}, {"measurement": "half-life", "setting": "[1]; read-out: Estimated average half-life (converted)", "result": "6.39 ± 0.106", "unit": "h"}, {"measurement": "Elevation of 5-HT over the basal level", "setting": "[2]", "result": "> 4", "unit": "fold"}, {"measurement": "Increase in DA", "setting": "[2]", "result": 2, "unit": "fold"}, {"measurement": "Increase in NE", "setting": "[2]", "result": 2, "unit": "fold"}, {"measurement": "Reduction of DOPAC, maximal", "setting": "[2]", "result": "35–40%"}, {"measurement": "Reduction of HVA, maximal", "setting": "[2]", "result": 20, "unit": "%"}, {"measurement": "Extracellular 5-HT at the end of two hours, percent baseline", "setting": "[2]; baseline 100%", "result": 215, "unit": "%"}, {"measurement": "Extracellular 5-HT, maximal, percent baseline", "setting": "[2]; baseline 100%", "result": 403, "unit": "%"}, {"measurement": "Extracellular DA at the end of two hours, percent baseline", "setting": "[2]; baseline 100%", "result": 129, "unit": "%"}, {"measurement": "Extracellular DA, maximal, percent baseline", "setting": "[2]; baseline 100%", "result": 274, "unit": "%"}, {"measurement": "Extracellular NE at the end of two hours, percent baseline", "setting": "[2]; baseline 100%", "result": 142, "unit": "%"}, {"measurement": "Extracellular NE, maximal, percent baseline", "setting": "[2]; baseline 100%", "result": 238, "unit": "%"}, {"measurement": "inhibition at 10 µM", "setting": "[3]", "result": 23.6, "unit": "%"}, {"measurement": "inhibition at 10 µM", "setting": "[4]; 10 µM, read-out: % Inhibition of Binding at 10 µM D-473", "result": 61.2, "unit": "%"}, {"measurement": "Ki", "setting": "[4]; secondary assay, read-out: Ki for D-473", "result": "> 10", "unit": "µM"}, {"measurement": "inhibition at 10 µM", "setting": "[5]", "result": -14.7, "unit": "%"}, {"measurement": "inhibition at 10 µM", "setting": "[6]", "result": 24.6, "unit": "%"}]}]}
